From ChEMBL document CHEMBL1140624, “Improved biochemical strategies for targeted delivery of taxoids” (Bioorg Med Chem, 2007) come the findings set out here.

Series [1] is described as follows: Half life in presence of 10 uM beta-glucuronidase assessed as taxol release at 100 uM. It is filed as ADME.
Series [2] has as its system OVCAR-3. Kind of series: Cytotoxicity against human OVCAR-3 cells. It is filed as functional, cell-based.
For series [3], the system named is OVCAR-3. Kind of series: Cytotoxicity against human OVCAR-3 cells in presence of beta-glucuronidase. It is filed as functional, cell-based.
The nature of series [4]: Half life in presence of 30 ug/mL beta-glucuronidase assessed as taxol release at 30 ug/mL. It counts as ADME.
The test system of series [5] is LoVo. The experiment in a line: Cytotoxicity against human LoVo cells in presence of beta-glucuronidase. It counts as functional, cell-based.
Series [6] has as its system LoVo. The experiment in a line: Ratio of IC50 of drug for human LoVo cells to IC50 of taxotere for human LoVo cells. It counts as functional.
For another series, the system named is MDA-MB-231. Kind of series: Cytotoxicity against ERalpha negative human MDA-MB-231 cells. It counts as functional, cell-based.
The test system of series [7] is MCF7. Kind of series: Cytotoxicity against ERalpha positive human MCF7 cells. It counts as functional, cell-based. Particulars: for EC50: read-out: ED50 (the source's name).
The subject of a further series is PC-3. The experiment in a line: Cytotoxicity against ERbeta positive human PC3 cells. It counts as functional, cell-based.
For a further series, the system named is A2780. The experiment in a line: Cytotoxicity against ERbeta negative human A2780 cells. It is filed as functional, cell-based.
Another series concerns MCF-7 (Homo sapiens). Kind of series: Ratio of IC50 for ERalpha positive human MCF-7 cells to IC50 for ERalpha negative human MDA-MB-231 cells.
Series [8] is described as follows: Half life in presence of 50 ug/mL beta-glucuronidase assessed as taxol release. It counts as ADME.
The subject of series [9] is Mus musculus. Kind of series: Reduction of body weight in human L2987 xenografted athymic mouse at 125 mg/kg. Details: scale not given: the % may be the effect or the level left. It is filed as functional.
A short description of series [10]: Half life in DTT buffer assessed as taxol release. It is filed as ADME.
The species named for series [11] is Mus musculus. Kind of series: Toxicity assessed as reduction of body weight in mouse. It is filed as organism-based. The note with it: in vivo.
In the next series the test system is HT-29. Kind of series: Cytotoxicity against human HT29 cells. It counts as functional, cell-based.
Series [12] is described as follows: Half life at pH 7. It counts as ADME. Particulars: buffer.
A short description of series [13]: Half life at pH 5. Particulars: buffer. It is filed as ADME.
The species named for series [14] is Mus musculus. Kind of series: Survival of p388 tumor bearing mouse after 30 days. It counts as functional, organism-based.
Series [15] in a line: Aqueous solubility of the compound. It is filed as physicochemical. Particulars: aqueous solution.
Series [16] is described as follows: Cytotoxicity against human IGROV cells. It counts as functional, cell-based.
In series [17] the test system is M19 melanoma cell line (human). The experiment in a line: Cytotoxicity against human M19 melanoma cells.
The subject of series [18] is L2987. The experiment in a line: Cytotoxicity against human L2987 cells. It counts as functional, cell-based.
The test system of series [19] is L2987. Kind of series: Cytotoxicity against human L2987 cells in presence of DTT. It counts as functional, cell-based.
Series [20] is described as follows: Half life in PBS buffer assessed as taxol circulation time at pH 7. It is filed as ADME.
Series [21] has as its system MCF7. Kind of series: Cytotoxicity against human MCF7 cells. It is filed as functional, cell-based.
The next series has as its system EVSA-T. The experiment in a line: Cytotoxicity against human EVSA-T cells. It counts as functional, cell-based.

Values after ≈ are worked out from the molar mass of the structure shown. Active and inactive are the calls of the source.

As to `CC(=O)O[C@H]1C(=O)[C@@]2(C)[C@H]([C@H](OC(=O)c3ccccc3)[C@]3(O)C[C@H](OC(=O)[C@H](OC(=O)CCc4ccc(NC(=O)O[C@@H]5O[C@H](C(=O)[O-])[C@@H](O)[C@H](O)[C@H]5O)cc4)[C@@H](NC(=O)c4ccccc4)c4ccccc4)C(C)=C1C3(C)C)[C@]1(OC(C)=O)CO[C@@H]1C[C@@H]2O.[Na+]`, the t1/2 in series [1] is 45 min. Moreover, the IC50 stood at 0.027 µM with OVCAR-3 [2] and 0.0011 µM in the series with OVCAR-3 [3].

With `CC(=O)O[C@H]1C(=O)[C@@]2(C)[C@H]([C@H](OC(=O)c3ccccc3)[C@]3(O)C[C@H](OC(=O)[C@H](OC(=O)N(C)CCN(C)C(=O)OCc4ccc(O[C@@H]5O[C@H](C(=O)O)[C@@H](O)[C@H](O)[C@H]5O)c([N+](=O)[O-])c4)[C@@H](NC(=O)OC(C)(C)C)c4ccccc4)C(C)=C1C3(C)C)[C@]1(OC(C)=O)CO[C@@H]1C[C@@H]2O`, the t1/2 in [4] is 10 min. Besides, in the series with LoVo [5], the outcome was inactive. The “Ratio IC50” value with LoVo [6] is listed as 337.

With `CC(=O)O[C@H]1C(=O)[C@@]2(C)[C@H]([C@H](OC(=O)c3ccccc3)[C@]3(O)C[C@H](OC(=O)[C@@H](OC(=O)CCC(=O)O[C@@H]4C[C@]5(C)[C@@H](O)CC[C@H]5[C@@H]5CCc6cc(O)ccc6[C@H]54)[C@@H](NC(=O)c4ccccc4)c4ccccc4)C(C)=C1C3(C)C)[C@]1(OC(C)=O)CO[C@@H]1C[C@@H]2O`, the IC50 with MDA-MB-231 was 0.304 µM; in the series with MCF7 [7], 0.103 µM; with PC-3, 0.068 µM; in the series with A2780, 1.9 µM. The “Ratio IC50” value with MCF-7 (Homo sapiens) is recorded as 3.

For the compound `CC(=O)O[C@H]1C(=O)[C@@]2(C)[C@H]([C@H](OC(=O)c3ccccc3)[C@]3(O)C[C@H](OC(=O)[C@H](OC(=O)N(C)CCN(C)C(=O)OCc4ccc(O)c(N)c4)[C@@H](NC(=O)c4ccccc4)c4ccccc4)C(C)=C1C3(C)C)[C@]1(OC(C)=O)CO[C@@H]1C[C@@H]2O`, the t1/2 in [8] was determined as 13 min.

In the series with Mus musculus [9], `CC(=O)O[C@H]1C(=O)[C@@]2(C)[C@H]([C@H](OC(=O)c3ccccc3)[C@]3(O)C[C@H](OC(=O)[C@H](OC(=O)C(C)(C)CCSSC[C@H](C)C(=O)N4CCC[C@@H]4C(=O)O)[C@@H](NC(=O)c4ccccc4)c4ccccc4)C(C)=C1C3(C)C)[C@]1(OC(C)=O)CO[C@@H]1C[C@@H]2O` gave an Activity of 10%. For the same compound, in series [10], the t1/2 stood at 25 min.

On to `CC(=O)O[C@H]1C(=O)[C@@]2(C)[C@H]([C@H](OC(=O)c3ccccc3)[C@]3(O)C[C@H](OC(=O)[C@H](OC(=O)CN(C)CC(=O)NCCOCCOCCOCCNC(=O)CCC(NC(=O)c4ccc(NCc5cnc6nc(N)[nH]c(=O)c6n5)cc4)C(=O)O)[C@@H](NC(=O)c4ccccc4)c4ccccc4)C(C)=C1C3(C)C)[C@]1(OC(C)=O)CO[C@@H]1C[C@@H]2O` (stereo partly specified), for which the Activity result in the series listed under Mus musculus [11] is given as “Non-toxic”.

For `CC(=O)O[C@H]1C(=O)[C@@]2(C)[C@H]([C@H](OC(=O)c3ccccc3)[C@]3(O)C[C@H](OC(=O)[C@H](OC(=O)COCC(=O)NCCOCCOCCOCCNC(=O)CCC(NC(=O)c4ccc(NCc5cnc6nc(N)[nH]c(=O)c6n5)cc4)C(=O)O)[C@@H](NC(=O)c4ccccc4)c4ccccc4)C(C)=C1C3(C)C)[C@]1(OC(C)=O)CO[C@@H]1C[C@@H]2O` (stereo partly specified), the EC50 in the series on MCF7 [7] is 3.3 ng/mL (≈ 0.00211 µM); in the series on HT-29 (read-out: ED50 (the source's name)), 2.9 ng/mL (≈ 0.00185 µM). Besides, the values for the half-life in series [12] and in series [13] were 40 h and above 12.5 days, respectively.

`CC(=O)O[C@H]1C(=O)[C@@]2(C)[C@H]([C@H](OC(=O)c3ccccc3)[C@]3(O)C[C@H](OC(=O)[C@H](O)[C@@H](NC(=O)c4ccccc4)c4ccccc4)C(C)=C1C3(C)C)[C@]1(OC(C)=O)CO[C@@H]1C[C@@H]2O` [PACLITAXEL]: the Activity result in the series filed under Mus musculus [14] was “Toxic”. Besides, the IC50 was determined as 0.0045 µM in the series with MDA-MB-231; 0.077 µM in the series with PC-3; 0.025 µM in the series with A2780; 0.0002 µM in the series with OVCAR-3 [2]; 10 ng/mL (≈ 0.0117 µM) in series [16]; 0.09 µM in the series with LoVo [5]. Also, the IC50 in the series with HT-29 is 30 ng/mL (≈ 0.0351 µM); in [17] it was below 3 ng/mL. Also, the EC50 in the series with MCF7 [7] is 50 ng/mL (≈ 0.0586 µM). The compound also gave a solubility in series [15] of 10 µg/mL (≈ 11.7 µM). In addition, the result with OVCAR-3 [3] was inactive.

As to `CC(=O)O[C@H]1C(=O)[C@@]2(C)[C@H]([C@H](OC(=O)c3ccccc3)[C@]3(O)C[C@H](OC(=O)[C@H](OC(=O)C(C)(C)CCSS[C@@H]4C[C@H](CO)[C@@H](O)[C@H](O)[C@H]4O)[C@@H](NC(=O)c4ccccc4)c4ccccc4)C(C)=C1C3(C)C)[C@]1(OC(C)=O)CO[C@@H]1C[C@@H]2O`, the t1/2 in series [10] is 12 min. Besides, the IC50 in the series with L2987 [18] was found to be 5.7 µM; with L2987 [19] it was 0.2 µM.

Consider `CC(=O)O[C@H]1C(=O)[C@@]2(C)[C@H]([C@H](OC(=O)c3ccccc3)[C@]3(O)C[C@H](OC(=O)[C@H](OC(=O)CC(C)(C)CNC(=O)O[C@@H]4O[C@H](C(=O)[O-])[C@@H](O)[C@H](O)[C@H]4O)[C@@H](NC(=O)c4ccccc4)c4ccccc4)C(C)=C1C3(C)C)[C@]1(OC(C)=O)CO[C@@H]1C[C@@H]2O.[Na+]`, for which the t1/2 in series [1] turned out to be 120 min. In addition, the IC50 with OVCAR-3 [2] came to 0.02 µM; in the series on OVCAR-3 [3], 0.0006 µM.

In series [15], `CC(=O)O[C@H]1C(=O)[C@@]2(C)[C@H]([C@H](OC(=O)c3ccccc3)[C@]3(O)C[C@H](OC(=O)[C@H](OC(=O)C[C@H](O)C(=O)O)[C@@H](NC(=O)c4ccccc4)c4ccccc4)C(C)=C1C3(C)C)[C@]1(OC(C)=O)CO[C@@H]1C[C@@H]2O` returned a solubility of 200 µg/mL (≈ 206 µM). In addition, the t1/2 in series [20] is above 1440 min. Further, the IC50 with MCF7 [21] and with EVSA-T was below 3 ng/mL each time.

Usually IC50 stands for the concentration needed to halve the response being measured. As a reminder, the half-life is the time needed for the level to fall by half in the phase considered. A word on the solubility: it is the concentration that dissolves in the medium under given conditions.
